Experimental data as given in patent publication EP4775567A1, “IONIZABLE CATIONIC LIPID COMPOUNDS AS WELL AS PREPARATION METHOD THEREFOR AND USE THEREOF” (Scindy Pharmaceutical (Suzhou) Co., Ltd, priority 2023, dated 2025).

Assays:
[1] = Apparent pKa of blank lipid nanoparticles by TNS fluorescence; format: physicochemical; conditions: compound:DSPC:cholesterol:ALC-0159 50:10:38.5:1.5, pH 2 to 11
Description: The apparent pKa of lipid nanoparticles is correlated with the efficacy of lipid nanoparticles in delivering nucleic acids (see Jayaraman et al., Angewandte Chemie, International Edition (2012), 51(34), 8529-8533; Semple et al., Nature Biotechnology 28, 172-176 (2010)). The apparent pKa of nanoparticles prepared from different lipid compounds was determined using fluorescence based on 2-(p-toluidino)-6-naphthalenesulfonic acid (TNS). The fluorescent probe has no fluorescence in water but […] emits fluorescence when bound to lipid membranes. Blank lipid nanoparticles were prepared at a molar ratio of ionizable cationic lipid compound (each exemplary compound) : DSPC : cholesterol : 2-[(polyethylene glycol)-2000]-N,N-ditetradecylacetamide (ALC-0159) of 50:10:38.5:1.5. They were diluted in different pH buffer solutions having a pH ranging from 2 to 11. An aqueous TNS solution was added and mixed. Then, the mixtures were added to a 96-well plate (black bottom), respectively. Detection was performed with excitation wavelength at 325 nm and the emission wavelength at 435 nm, with top detection. Measurement was performed 10 times for each well, and the fluorescence intensity was recorded. A pH-fluorescence intensity curve was plotted to determine the apparent pKa.

[2] = Particle size and polydispersity index (PDI) by dynamic light scattering; format: physicochemical; conditions: luciferase mRNA lipid nanoparticles prepared from the compound; 25°C
Description: (§1) Luciferase mRNA was diluted in a 10-100 mM sodium citrate buffer solution at pH 4.0, with the concentration of the mRNA solution being 135 µg/ml. A mixed lipid ethanol solution was prepared at a molar ratio of ionizable cationic lipid compound (each exemplary compound) : DSPC: cholesterol : 2-[(polyethylene glycol)-2000]-N,N-ditetradecylacetamide (ALC-0159) of 50:10:38.5:1.5. The mRNA solution and the mixed lipid solution were mixed at a volume ratio of 3:1 in a nanodrug preparation device, followed by ultrafiltration to obtain luciferase mRNA lipid nanoparticles.
(§2) • 1. Determination of particle size and polydispersity index (PDI): The average particle size and PDI of the nanoparticle sample solutions in the examples were determined by dynamic light scattering using Malvern ZetaSizer Nano ZS90. The measurement angle was 90°, the refractive index of the dispersant was 1.330, and the test temperature was 25°C. • 2. Zeta potential: The Zeta potential of the nanoparticle sample solutions in the examples was determined by electrophoretic light scattering (ELS) using Malvern ZetaSizer Nano ZS90. Refractive index of the dispersant: 1.330, Test temperature: 25°C. • 3. Encapsulation Rate: The Encapsulation Rate of luciferase mRNA in lipid nanoparticles was determined using a Quant-it Ribogreen RNA quantitation kit (ThermoFisher Scientific, UK) in accordance with the manufacturer's instructions.

[3] = Zeta potential by electrophoretic light scattering; format: physicochemical; conditions: luciferase mRNA lipid nanoparticles prepared from the compound; 25°C
Description: as §1, §2

[4] = Encapsulation Rate of luciferase mRNA in lipid nanoparticles (Quant-it Ribogreen RNA kit); format: physicochemical; conditions: luciferase mRNA in lipid nanoparticles prepared from the compound
Description: as §1, §2

[5] = tested on: HEK 293T cells; assay: In vitro transfection efficiency of luciferase mRNA lipid nanoparticles (luciferase activity); format: cell-based; conditions: 100 ng dose, 96-well plate, 24 h incubation; luciferase mRNA lipid nanoparticles
Description: as §1
HEK-293T cells were used to evaluate the in vitro transfection efficiency of lipid nanoparticle compositions prepared from each exemplary compound. HEK293T cells were routinely cultured in DMEM + 10% FBS medium to ensure the cells were in the logarithmic growth phase. One day before transfection, the cells were seeded into a 96-well culture plate at an appropriate cell density and grown overnight. At the time of transfection, the cell confluency needed to reach 70-90%. The lipid nanoparticle compositions prepared from each exemplary compound were diluted into 4 different dose concentrations with DMEM and added to the 96-well cell culture plate, resulting in final concentrations of 400 ng, 200 ng, 100 ng and 50 ng per well, respectively. luciferase plasmid transfected using Lipofectamine 2000 was used as the positive control (PC). After incubation for 24 h in a 5% CO2 incubator at 37°C, the substrate was added to the wells, and the luciferase activity was determined using a microplate reader. […] The luciferase activity of the luciferase mRNA lipid nanoparticles prepared from Compound 1005 in HEK293T cells is shown in Fig. 1.

[6] = tested on: female Balb/c mice; assay: In vivo transfection efficiency and safety of luciferase mRNA lipid nanoparticles (whole-body live imaging); conditions: tail vein injection, single dose 0.3 mpk, 6 h after administration
Description: as §1
6-8 week-old female Balb/c mice were used to evaluate the in vivo transfection efficiency and safety of lipid nanoparticle compositions prepared from each exemplary compound. The lipid nanoparticles prepared from each exemplary compound were administered by tail vein injection at a single dose of 0.3 mpk. At specific time points after administration (e.g., 3 h, 6 h), live imaging of the animals was performed using a PerkinElmer small animal imaging system to determine the bioluminescent signal. The whole-body live imaging of mice at 3 h/6 h after intravenous administration of luciferase mRNA lipid nanoparticles prepared from Compound 1008 is shown in Fig. 2. […] Table 3 Summary of in vitro/in vivo Activity Evaluation of Lipid Nanoparticles Prepared from Compounds

Which results are given for `CCCCCCCCCCCCCC(CC)C(=O)OCC(COC(=O)C(CC)CCCCCCCCCCCCC)(COC(=O)C(CC)CCCCCCCCCCCCC)NCCC(=O)NCCN(C)C` (stereo not drawn) [Compound 1009]?
Apparent pKa [1]: 5.23; Particle Size [2]: 67.63 nm; Polydispersity Index (PDI) [2]: 0.126; Zeta Potential [3]: 2.60 mV; Encapsulation Rate [4]: 92.7%; HEK 293T Cell Luciferase Activity [5]: 6.15×10^7 RLU; Mouse Whole-Body Average Fluorescence Signal [6]: 5.99×10^4 p/s/cm^2/sr

With `CCCCCCCCCCCCCCCC(CC)C(=O)OCC(COC(=O)C(CC)CCCCCCCCCCCCCCC)(COC(=O)C(CC)CCCCCCCCCCCCCCC)NCCC(=O)NCCN(CC)CC` (stereo not drawn) [Compound 1011] as the compound, how does the “Apparent pKa” value [1] read?
Its value is 6.30.

What about the “Particle Size” value [2] of the same compound?
The value was 60.38 nm.

What about the “Polydispersity Index (PDI)” value [2] of the same compound?
The value was 0.193.

What about the “Zeta Potential” value [3] of the same compound?
Its value is 2.31 mV.

And the “Encapsulation Rate” value [4]?
Its value is 91.8%.

And the “HEK 293T Cell Luciferase Activity” value [5]?
Its value is 8.22×10^7 RLU.

What about the “Mouse Whole-Body Average Fluorescence Signal” value [6] of the same compound?
The value was 1.29×10^5 p/s/cm^2/sr.

With `CCCCCCCCCCCCCCCC(CC)C(=O)OCC(COC(=O)C(CC)CCCCCCCCCCCCCCC)(COC(=O)C(CC)CCCCCCCCCCCCCCC)NCCC(=O)NCCN(CCC)CCC` (stereo not drawn) [Compound 1012] as the compound, how does the “Apparent pKa” value [1] read?
Its value is 6.05.

And the “Particle Size” value [2]?
The value was 80.07 nm.

And the “Polydispersity Index (PDI)” value [2]?
The value was 0.051.

What about the “Zeta Potential” value [3] of the same compound?
Its value is 0.811 mV.

And the “Encapsulation Rate” value [4]?
Its value is 87.4%.

And the “HEK 293T Cell Luciferase Activity” value [5]?
The value was 6.61×10^5 RLU.

What about the “Mouse Whole-Body Average Fluorescence Signal” value [6] of the same compound?
Its value is 2.02×10^5 p/s/cm^2/sr.

For `CCCCCCCCCCCCCCCC(CC)C(=O)OCC(COC(=O)C(CC)CCCCCCCCCCCCCCC)(COC(=O)C(CC)CCCCCCCCCCCCCCC)NCCC(=O)NCCN(CCCC)CCCC` (stereo not drawn) [Compound 1013], which “Apparent pKa” value [1] is on record?
Its value is 5.75.

What about the “Particle Size” value [2] of the same compound?
The value was 82.41 nm.

What about the “Polydispersity Index (PDI)” value [2] of the same compound?
The value was 0.123.

What about the “Zeta Potential” value [3] of the same compound?
The value was -2.23 mV.

What about the “Encapsulation Rate” value [4] of the same compound?
The value was 90.7%.

And the “HEK 293T Cell Luciferase Activity” value [5]?
The value was 9.87×10^4 RLU.

And the “Mouse Whole-Body Average Fluorescence Signal” value [6]?
The value was 1.69×10^4 p/s/cm^2/sr.

Which “Apparent pKa” value [1] does the source give for `CCCCCCCCCCCCCCCC(CC)C(=O)OCC(COC(=O)C(CC)CCCCCCCCCCCCCCC)(COC(=O)C(CC)CCCCCCCCCCCCCCC)NCCC(=O)OCCN(C)C` (stereo not drawn) [Compound 1029] here?
Its value is 5.41.

And the “Particle Size” value [2]?
The value was 77.94 nm.

What about the “Polydispersity Index (PDI)” value [2] of the same compound?
Its value is 0.057.

And the “Zeta Potential” value [3]?
The value was -3.71 mV.

And the “Encapsulation Rate” value [4]?
The value was 90.6%.

What about the “HEK 293T Cell Luciferase Activity” value [5] of the same compound?
Its value is 8.23×10^4 RLU.

And the “Mouse Whole-Body Average Fluorescence Signal” value [6]?
Its value is 3.27×10^4 p/s/cm^2/sr.

With `CCCCCCCCCC(CCCCCCCC)C(=O)OCC(COC(=O)C(CCCCCCCC)CCCCCCCCC)(COC(=O)C(CCCCCCCC)CCCCCCCCC)NCCOCCN(C)C` (stereo not drawn) [Compound 1059] as the compound, how does the “Apparent pKa” value [1] read?
The value was 5.18.

And the “Particle Size” value [2]?
The value was 72.71 nm.

And the “Polydispersity Index (PDI)” value [2]?
The value was 0.067.

What about the “Zeta Potential” value [3] of the same compound?
Its value is -10.0 mV.

What about the “Encapsulation Rate” value [4] of the same compound?
The value was 93.0%.

What about the “HEK 293T Cell Luciferase Activity” value [5] of the same compound?
Its value is 1.32×10^4 RLU.

And the “Mouse Whole-Body Average Fluorescence Signal” value [6]?
The value was 4.94×10^5 p/s/cm^2/sr.

With `CCCCCCCCCCCCCCCC(CC)C(=O)OCC(COC(=O)C(CC)CCCCCCCCCCCCCCC)(COC(=O)C(CC)CCCCCCCCCCCCCCC)NC(=O)CCCCN(C)CCCCO` (stereo not drawn) [Compound 1113] as the compound, how does the “Apparent pKa” value [1] read?
Its value is 5.91.

And the “Particle Size” value [2]?
The value was 58.00 nm.

What about the “Polydispersity Index (PDI)” value [2] of the same compound?
The value was 0.082.

And the “Zeta Potential” value [3]?
Its value is 4.57 mV.

And the “Encapsulation Rate” value [4]?
The value was 100.3%.

What about the “HEK 293T Cell Luciferase Activity” value [5] of the same compound?
The value was 3.43×10^4 RLU.

And the “Mouse Whole-Body Average Fluorescence Signal” value [6]?
Its value is 3.56×10^7 p/s/cm^2/sr.

Which results are given for `CCCCCCCCCC(CCCCCCCC)C(=O)OCC(COC(=O)C(CCCCCCCC)CCCCCCCCC)(COC(=O)C(CCCCCCCC)CCCCCCCCC)NCCC(=O)NCCN(C)CCCCO` (stereo not drawn) [Compound 1118]?
Apparent pKa [1]: 5.11; Particle Size [2]: 108.1 nm; Polydispersity Index (PDI) [2]: 0.051; Zeta Potential [3]: -3.96 mV; Encapsulation Rate [4]: 95.9%; HEK 293T Cell Luciferase Activity [5]: 1.48×10^4 RLU; Mouse Whole-Body Average Fluorescence Signal [6]: 1.77×10^8 p/s/cm^2/sr

For `CCCCCCCCCC(CCCCCCCC)C(=O)OCC(COC(=O)C(CCCCCCCC)CCCCCCCCC)(COC(=O)C(CCCCCCCC)CCCCCCCCC)NCCCCCCN(C)CCCCO` (stereo not drawn) [Compound 1120], which “Apparent pKa” value [1] is on record?
The value was 6.14.

What about the “Particle Size” value [2] of the same compound?
Its value is 98.18 nm.

What about the “Polydispersity Index (PDI)” value [2] of the same compound?
The value was 0.049.

And the “Zeta Potential” value [3]?
The value was -6.05 mV.

What about the “Encapsulation Rate” value [4] of the same compound?
Its value is 97.2%.

And the “HEK 293T Cell Luciferase Activity” value [5]?
The value was 2.35×10^4 RLU.

And the “Mouse Whole-Body Average Fluorescence Signal” value [6]?
The value was 3.52×10^8 p/s/cm^2/sr.
